Usually melting point stands for the temperature, or range, at which the solid turns liquid.

Data on 22 molecules can be found in patent US20100041892A1, “Therapeutic agent for diabetes” (priority 2005, published 2010).

As to `CCCS(=O)(=O)NC(=O)CCc1cc(OC(C)C)nn1Cc1ccc(Cl)cc1Cl` [Example 85, 3-[1-(2,4-dichlorobenzyl)-3-isopropoxy-1H-pyrazol-5-yl]-N-(propylsulfonyl)propanamide], the melting point was 124 to 126 °C.
With `CCN(CC)C(=O)COc1ccc(CCC(=O)NS(=O)(=O)CCC(C)C)c(Oc2ncc(C(F)(F)F)cc2Cl)c1` [Example 45, 3-{2-{[3-chloro-5-(trifluoromethyl)pyridin-2-yl]oxy}-4-[2-(diethylamino)-2-oxoethoxy]phenyl}-N-[(3-methylbutyl)sulfonyl]propanamide] the figure was 123 to 125 °C.
The value for `CCCCCS(=O)(=O)NCC(C)Cc1ccc(OCCOC)cc1Oc1ncc(C(F)(F)F)cc1Cl` (stereo not shown) [Example 41, N-{3-[2-{[3-chloro-5-(trifluoromethyl)pyridin-2-yl]oxy}-4-(2-methoxyethoxy)phenyl]-2-methylpropyl}pentane-1-sulfonamide] was 80 to 82 °C; that for `COCCOc1ccc(CCCNS(=O)(=O)c2ccc(Cl)cc2)c(Oc2ncc(C(F)(F)F)cc2Cl)c1` [Example 22, 4-chloro-N-{3-[2-{[3-chloro-5-(trifluoromethyl)pyridin-2-yl]oxy}-4-(2-methoxyethoxy)phenyl]propyl}benzenesulfonamide] was 111 to 113 °C.
With `CCCCOc1cc(CCS(=O)(=O)NC(=O)OCCOC)n(Cc2ccc(Cl)cc2Cl)n1` [Example 134, 2-methoxyethyl ({2-[3-butoxy-1-(2,4-dichlorobenzyl)-1H-pyrazol-5-yl]ethyl}sulfonyl)carbamate] the figure was 82 to 86 °C.
For `COCCOc1ccc(CCCNS(=O)(=O)c2cccc(Cl)c2)c(Oc2ncc(C(F)(F)F)cc2Cl)c1` [Example 24, 3-chloro-N-{3-[2-{[3-chloro-5-(trifluoromethyl)pyridin-2-yl]oxy}-4-(2-methoxyethoxy)phenyl]propyl}benzenesulfonamide], the melting point was in the range of 110 to 114 °C.
The value for `CCOC(=O)c1cnc(Oc2cc(OCCOC)ccc2CCCOC(=O)NCC2CC2)c(Cl)c1` [Example 465, ethyl 5-chloro-6-[2-[3-({[(cyclopropylmethyl)amino]carbonyl}oxy)propyl]-5-(2-methoxyethoxy)phenoxy]nicotinate] was 94.6 to 94.8 °C; that for `Cc1ccccc1S(=O)(=O)NC(=O)CCc1cc(OC(C)C)nn1Cc1ccc(Cl)cc1Cl` [Example 88, 3-[1-(2,4-dichlorobenzyl)-3-isopropoxy-1H-pyrazol-5-yl]-N-[(2-methylphenyl)sulfonyl]propanamide] was 165 to 166 °C; that for `CCCCN(C)C(=O)OCCCc1ccc(OCCOC)cc1Oc1ncc(C(F)(F)F)cc1Cl` [Example 50, 3-[2-{[3-chloro-5-(trifluoromethyl)pyridin-2-yl]oxy}-4-(2-methoxyethoxy)phenyl]propyl butyl(methyl)carbamate] was 54 to 55.2 °C.
With `CCCCOc1cc(/C=C/C(=O)NS(=O)(=O)CCC(C)C)n(Cc2ccc(Cl)cc2Cl)n1` [Example 99, (2E)-3-[3-butoxy-1-(2,4-dichlorobenzyl)-1H-pyrazol-5-yl]-N-[(3-methylbutyl)sulfonyl]acrylamide] the figure was 119 to 120 °C; with `COCCCS(=O)(=O)NC(=O)CCc1cc(OCC2CC2)nn1Cc1ccc(C(F)(F)F)cc1Cl` [Example 120, 3-[1-[2-chloro-4-(trifluoromethyl)benzyl]-3-(cyclopropylmethoxy)-1H-pyrazol-5-yl]-N-[(3-methoxypropyl)sulfonyl]propanamide], 152 to 154 °C; with `CCCCCS(=O)(=O)NC(=O)/C=C/c1cc(OCCOC)nn1Cc1ccc(Cl)cc1Cl` [Example 109, (2E)-3-[1-(2,4-dichlorobenzyl)-3-(2-methoxyethoxy)-1H-pyrazol-5-yl]-N-(pentylsulfonyl)acrylamide], 82 to 85 °C.
For the molecule `CCOCCNC(=O)OCCCc1ccc(OCCOC)cc1Oc1ncc(C(F)(F)F)cc1Cl` [Example 56, 3-[2-{[3-chloro-5-(trifluoromethyl)pyridin-2-yl]oxy}-4-(2-methoxyethoxy)phenyl]propyl (2-ethoxyethyl)carbamate], the melting point lay in the range of 66 to 68 °C.
For `CCCCCS(=O)(=O)NC(=O)/C=C/c1ccc(OCCCOCC2CC2)cc1Oc1ncc(C(F)(F)F)cc1Cl` [Example 259, (2E)-3-{2-{[3-chloro-5-(trifluoromethyl)pyridin-2-yl]oxy}-4-[3-(cyclopropylmethoxy)propoxy]phenyl}-N-(pentylsulfonyl)acrylamide], the melting point lay within 124 to 125 °C.
With `CCCCCS(=O)(=O)NC(=O)/C=C/c1ccc(OCC(C)=O)cc1Oc1ncc(C(F)(F)F)cc1Cl` [Example 452, (2E)-3-[2-{[3-chloro-5-(trifluoromethyl)pyridin-2-yl]oxy}-4-(2-oxopropoxy)phenyl]-N-(pentylsulfonyl)acrylamide] the figure was 187 to 188 °C; with `CCCCCS(=O)(=O)NC(=O)CCCCc1cc(OCCCC)nn1Cc1ccc(Cl)cc1Cl` [Example 147, 5-[3-butoxy-1-(2,4-dichlorobenzyl)-1H-pyrazol-5-yl]-N-(pentylsulfonyl)pentanamide], 91 to 93 °C; with `CCCCCS(=O)(=O)NC(=O)/C=C/c1cc(OC2CCOCC2)nn1Cc1ccc(C(F)(F)F)cc1Cl` [Example 154, (2E)-3-[1-[2-chloro-4-(trifluoromethyl)benzyl]-3-(tetrahydro-2H-pyran-4-yloxy)-1H-pyrazol-5-yl]-N-(pentylsulfonyl)acrylamide], 160.5 to 161 °C.
The value for `CCCCCS(=O)(=O)NC(=O)/C=C/c1ccc(OCCOC)cc1OCC1CC1` [Example 160, (2E)-3-[2-(cyclopropylmethoxy)-4-(2-methoxyethoxy)phenyl]-N-(pentylsulfonyl)acrylamide] was 64.8 to 66.3 °C.
The value for `COCCOc1ccc(COC(=O)NS(=O)(=O)NCC2CC2)c(Oc2ncc(C(F)(F)F)cc2Cl)c1` [Example 67, 2-{[3-chloro-5-(trifluoromethyl)pyridin-2-yl]oxy}-4-(2-methoxyethoxy)benzyl {[(cyclopropylmethyl)amino]sulfonyl}carbamate] was 150 to 150.5 °C; that for `CCCCCS(=O)(=O)NC(=O)/C=C/c1ccc(OCC(O)COC(C)C)cc1Oc1ncc(C(F)(F)F)cc1Cl` (stereo not shown) [Example 456, (2E)-3-[2-{[3-chloro-5-(trifluoromethyl)pyridin-2-yl]oxy}-4-(2-hydroxy-3-isopropoxypropoxy)phenyl]-N-(pentylsulfonyl)acrylamide] was 86 to 88 °C; that for `COCCCOc1ccc(CCCOC(=O)NS(=O)(=O)NCCOC(C)C)c(Oc2ncc(C(F)(F)F)cc2Cl)c1` [Example 474, 3-[2-{[3-chloro-5-(trifluoromethyl)pyridin-2-yl]oxy}-4-(3-methoxypropoxy)phenyl]propyl {[(2-isopropoxyethyl)amino]sulfonyl}carbamate] was 67.4 to 68 °C.
As to `CCCCCS(=O)(=O)NC(=O)/C=C/c1ccc(OCCOC)cc1Oc1ncc([N+](=O)[O-])cc1C` [Example 185, (2E)-3-{4-(2-methoxyethoxy)-2-[(3-methyl-5-nitropyridin-2-yl)oxy]phenyl}-N-(pentylsulfonyl)acrylamide], the melting point lay in the range of 148 to 150.3 °C.
